In brackets after ≈: the same amount, converted by molar mass.
Assays:
Candida parapsilosis = test: Antifungal activity against Candida parapsilosis ATCC 22019 incubated for 24 hrs by CLSI based broth microdilution method; assay type: functional; settings: Lodderomyces parapsilosis, ATCC 22019, 24 h
Candida albicans = test: Antifungal activity against Candida albicans SC5314 incubated for 24 hrs by CLSI based broth microdilution method; assay type: functional; settings: SC5314, 24 h
Nakaseomyces glabratus = test: Antifungal activity against Candida glabrata ATCC 2001 incubated for 24 hrs by CLSI based broth microdilution method; assay type: functional; settings: ATCC 2001, 24 h
[1] = test system: Mycobacterium tuberculosis; test: Antitubercular activity against Mycobacterium tuberculosis HN878 in presence of non-ionic surfactant vesicles relative to compound alone; assay type: functional
[2] = test system: Mycobacterium tuberculosis; test: Antitubercular activity against Mycobacterium tuberculosis HN878; assay type: functional
[3] = test system: Trypanosoma brucei gambiense; test: Trypanocidal activity against Trypanosoma brucei gambiense; assay type: functional, organism-based

| SMILES | MIC50 (Candida parapsilosis) [mg/L] | MIC50 (Candida albicans) [mg/L] | MIC50 (Nakaseomyces glabratus) [mg/L] | fold change (FC) [1] | MIC50 [2] [µM] | IC50 [3] [nM] |
| --- | --- | --- | --- | --- | --- | --- |
| Cl.Cl.N=C(N)N/N=C/c1ccc(-c2ccc(/C=N/NC(=N)N)s2)cc1 | 2 to 15.6 | 2 to 15.6 | 2 to 15.6 | – | – | – |
| C/C(=N\NC(=N)N)c1ccc(-c2ccc(/C(C)=N/NC(=N)N)s2)cc1.Cl.Cl | 2 to 15.6 | 2 to 15.6 | 2 to 15.6 | – | – | – |
| Cn1cc(NC(=O)c2cc(NC(=O)c3ccc(/C=C/c4ccc(C(F)(F)F)cc4)cc3)cn2C)cc1C(=O)NCCC(=N)N | – | – | – | 2.1 | 4.19 (≈ 2.54 µg/mL) | – |
| N=C(N)c1ccc(OCCCCCOc2ccc(C(=N)N)cc2)cc1 [PENTAMIDINE] | – | – | – | – | – | 1 to 10 |
| Cn1cc(NC(=O)c2cc(NC(=O)c3ccc(/C=C/c4nc5ccccc5s4)cc3)cn2C)cc1C(=O)NCCC(=N)N | – | – | – | 1.6 | 4.09 (≈ 2.43 µg/mL) | – |
| Cl.Cl.N=C(N)N/N=C/c1ccc(-c2cnc(-c3ccc(/C=N/NC(=N)N)cc3)s2)cc1 | 2 to 15.6 | 2 to 15.6 | 2 to 15.6 | – | – | – |
| Cl.Cl.N=C(N)N/N=C/c1ccc(-c2ccc(/C=N/NC(=N)N)o2)cc1 | 2 to 15.6 | 2 to 15.6 | 2 to 15.6 | – | – | – |

Source: ChEMBL document CHEMBL4480363, “Recent developments in compounds acting in the DNA minor groove” (Medchemcomm, 2019)
